Measured values published in patent US11866450B2, “Modulators of Cystic Fibrosis Transmembrane Conductance regulator, pharmaceutical compositions, methods of treatment, and process for making the modulators” (priority 2018, dated 2024).
pEC50: −log10 of the molar value.

Target: CFTR-mediated chloride transport (Homo sapiens, UniProt P13569)
Format: cell-based
Details: enteroid cells incubated with test compound 18-24 hours, acute 10 μM forskolin and 300 nM Compound III; for Max. Activity: % of chloride transport with 3 μM Compound A, 3 μM Compound II and 300 nM acute Compound III triple combination control
Method in brief: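 Membrane-potential fluorescence AUC over 15 min quantified CFTR chloride transport after acute forskolin (10 μM), IBMX (100 μM) and Compound III (300 nM) in chloride-free buffer. Human enteroid cells were pretreated with compound for 18–24 h; % Activity is relative to 3 μM Compound A + 3 μM Compound II + 300 nM Compound III.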

Sequence of CFTR-mediated chloride transport (P13569 whole entry, looked up): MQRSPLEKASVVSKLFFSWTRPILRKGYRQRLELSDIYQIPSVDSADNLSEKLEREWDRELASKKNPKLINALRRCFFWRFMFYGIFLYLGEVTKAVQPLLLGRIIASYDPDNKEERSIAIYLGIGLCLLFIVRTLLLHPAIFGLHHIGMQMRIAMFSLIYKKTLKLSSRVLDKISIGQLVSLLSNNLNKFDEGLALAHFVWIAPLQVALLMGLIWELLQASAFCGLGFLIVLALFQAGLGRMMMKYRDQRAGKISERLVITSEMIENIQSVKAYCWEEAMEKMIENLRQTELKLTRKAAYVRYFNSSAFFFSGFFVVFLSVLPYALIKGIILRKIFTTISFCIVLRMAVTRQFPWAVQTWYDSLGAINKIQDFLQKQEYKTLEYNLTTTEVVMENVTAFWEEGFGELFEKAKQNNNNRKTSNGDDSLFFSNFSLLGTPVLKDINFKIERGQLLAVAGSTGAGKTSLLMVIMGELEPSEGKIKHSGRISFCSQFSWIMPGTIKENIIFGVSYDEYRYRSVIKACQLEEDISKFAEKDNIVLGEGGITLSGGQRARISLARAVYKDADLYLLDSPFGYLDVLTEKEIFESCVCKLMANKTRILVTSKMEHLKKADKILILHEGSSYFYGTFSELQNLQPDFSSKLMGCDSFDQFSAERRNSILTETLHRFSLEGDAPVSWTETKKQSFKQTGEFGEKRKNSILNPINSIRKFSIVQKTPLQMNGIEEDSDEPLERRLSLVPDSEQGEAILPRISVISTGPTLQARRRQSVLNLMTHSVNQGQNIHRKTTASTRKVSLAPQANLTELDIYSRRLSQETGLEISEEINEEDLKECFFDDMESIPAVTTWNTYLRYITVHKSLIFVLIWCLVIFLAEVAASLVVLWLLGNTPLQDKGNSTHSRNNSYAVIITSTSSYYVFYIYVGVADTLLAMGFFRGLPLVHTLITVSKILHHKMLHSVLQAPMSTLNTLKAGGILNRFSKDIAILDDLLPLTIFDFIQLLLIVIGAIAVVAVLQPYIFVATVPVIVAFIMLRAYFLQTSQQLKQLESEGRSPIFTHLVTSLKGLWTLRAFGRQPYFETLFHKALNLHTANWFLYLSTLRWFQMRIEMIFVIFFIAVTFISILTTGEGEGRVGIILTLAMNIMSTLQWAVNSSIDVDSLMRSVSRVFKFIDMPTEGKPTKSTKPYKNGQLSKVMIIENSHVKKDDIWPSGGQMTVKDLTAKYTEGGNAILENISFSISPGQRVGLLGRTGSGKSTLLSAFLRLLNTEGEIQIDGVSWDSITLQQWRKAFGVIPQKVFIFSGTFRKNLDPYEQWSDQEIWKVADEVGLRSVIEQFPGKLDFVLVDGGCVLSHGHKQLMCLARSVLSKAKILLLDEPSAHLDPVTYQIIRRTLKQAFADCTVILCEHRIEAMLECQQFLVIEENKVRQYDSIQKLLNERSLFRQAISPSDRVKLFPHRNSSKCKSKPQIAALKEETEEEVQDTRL

SMILES: CC1(C)C[C@H]2CCCn3ccc(n3)S(=O)(=O)NC(=O)c3ccc(-n4ccc(OCCC5C(C)(C)C5(C)C)n4)nc3N1C2 (single isomer, unassigned) [Compound 207, 20,20-dimethyl-4-{3-[2-(2,2,3,3-tetramethylcyclopropyl)ethoxy]-1H-pyrazol-1-yl}-10λ^6-thia-1,3,9,14,22-pentaazatetracyclo[16.2.1.111,14.02,7]docosa-2(7),3,5,11(22),12-pentaene-8,10,10-trione]
- pEC50: > 6.00
- Max. Activity: +++ (+++ is >60%)

SMILES: Cc1ccc2nc1NCCC[C@H]1CN(c3nc(-n4ccc(OCCC5(C(F)(F)F)CC5)n4)ccc3C(=O)NS2(=O)=O)C(C)(C)C1 (single isomer, unassigned) [Compound 115, 12,12,20-trimethyl-8-(3-{2-[1-(trifluoromethyl)cyclopropyl]ethoxy}-1H-pyrazol-1-yl)-2λ^6-thia-3,9,11,18,23-pentaazatetracyclo[17.3.1.111,14.05,10]tetracosa-1(23),5(10),6,8,19,21-hexaene-2,2,4-trione]
- pEC50: > 6.00
- Max. Activity: +++ (+++ is >60%)

SMILES: CC1(C)C[C@H]2CCCOc3cccc(n3)S(=O)(=O)NC(=O)c3ccc(-n4ccc(OCCC5(C(F)(F)F)CC5)n4)nc3N1C2 (single isomer, unassigned) [Compound 48, 12,12-dimethyl-8-(3-{2-[1-(trifluoromethyl)cyclopropyl]ethoxy}-1H-pyrazol-1-yl)-18-oxa-2λ^6-thia-3,9,11,23-tetraazatetracyclo[17.3.1.111,14.05,10]tetracosa-1(22),5,7,9,19(23),20-hexaene-2,2,4-trione]
- pEC50: < 5.52
- Max. Activity: + (+ is <30%)

SMILES: CC1(C)C[C@@H]2CCCNc3cccc(n3)S(=O)(=O)NC(=O)c3ccc(N4CC5CCCCN5C4=O)nc3N1C2 (stereo partly drawn) [Compound 213, (14S)-12,12-dimethyl-8-{3-oxo-octahydroimidazo[1,5-a]pyridin-2-yl}-2λ^6-thia-3,9,11,18,23-pentaazatetracyclo[17.3.1.111,14.05,10]tetracosa-1(23),5(10),6,8,19,21-hexaene-2,2,4-trione]
- pEC50: < 5.52
- Max. Activity: + (+ is <30%)

SMILES: C[C@@H]1CC[C@H]2CN(c3nc(-n4ccc(OCCC5(C(F)(F)F)CC5)n4)ccc3C(=O)NS(=O)(=O)c3cccc(n3)N1)C(C)(C)C2 (single isomer, unassigned) [Compound 60, 12,12,17-trimethyl-8-(3-{2-[1-(trifluoromethyl)cyclopropyl]ethoxy}-1H-pyrazol-1-yl)-2λ^6-thia-3,9,11,18,23-pentaazatetracyclo[17.3.1.111,14.05,10]tetracosa-1(23),5(10),6,8,19,21-hexaene-2,2,4-trione]
- pEC50: > 6.00
- Max. Activity: +++ (+++ is >60%)

SMILES: CC1(C)C[C@H]2CCCCc3cccc(c3)S(=O)(=O)NC(=O)c3ccc(-n4ccc(OCCC5(C(F)(F)F)CC5)n4)nc3N1C2 (single isomer, unassigned) [Compound 56, 12,12-dimethyl-8-(3-{2-[1-(trifluoromethyl)cyclopropyl]ethoxy}-1H-pyrazol-1-yl)-2λ^6-thia-3,9,11-triazatetracyclo[17.3.1.111,14.05,10]tetracosa-1(22),5,7,9,19(23),20-hexaene-2,2,4-trione]
- pEC50: > 6.00
- Max. Activity: + (+ is <30%)

SMILES: Cc1nn2cc1S(=O)(=O)NC(=O)c1ccc(-n3ccc(OCCC4(C(F)(F)F)CC4)n3)nc1N1C[C@H](CCCC2)CC1(C)C (single isomer, unassigned) [Compound 92, 12,21,21-trimethyl-4-(3-{2-[1-(trifluoromethyl)cyclopropyl]ethoxy}-1H-pyrazol-1-yl)-10λ^6-thia-1,3,9,13,14-pentaazatetracyclo[17.2.1.111,14.02,7]tricosa-2,4,6,11(23),12-pentaene-8,10,10-trione]
- pEC50: > 6.00
- Max. Activity: ++ (++ is 30-60%)

SMILES: CC1(C)C[C@H]2CCCNc3cccc(n3)S(=O)(=O)NC(=O)c3ccc(-n4ccc(OCCC5(C(F)(F)F)CC5)n4)nc3N1C2 [Compound 13, (14R)-12,12-dimethyl-8-(3-{2-[1-(trifluoromethyl)cyclopropyl]ethoxy}-1H-pyrazol-1-yl)-2λ^6-thia-3,9,11,18,23-pentaazatetracyclo[17.3.1.111,14.05,10]tetracosa-1(23),5,7,9,19,21-hexaene-2,2,4-trione]
- pEC50: 5.52 to 6.00
- Max. Activity: + (+ is <30%)

SMILES: CC1(C)C[C@@H]2CCCNc3cc(O)cc(n3)S(=O)(=O)NC(=O)c3ccc(-n4ccc(OCCC5C6(CC6)C56CC6)n4)nc3N1C2 [Compound 264, (14S)-8-[3-(2-{Dispiro[2.0.2.1]heptan-7-yl}ethoxy)-1H-pyrazol-1-yl]-21-hydroxy-12,12-dimethyl-2λ^6-thia-3,9,11,18,23-pentaazatetracyclo[17.3.1.111,14.05,10]tetracosa-1(23),5,7,9,19,21-hexaene-2,2,4-trione]
- pEC50: > 6.00
- Max. Activity: +++ (+++ is >60%)

SMILES: Cc1c2cnn1CCCC1CN(c3nc(-n4ccc(OCC(C)(C)C(F)(F)F)n4)ccc3C(=O)NS2(=O)=O)C(C)(C)C1 (single isomer, unassigned) [Compound 288, 20,20,22-trimethyl-4-[3-(3,3,3-trifluoro-2,2-dimethylpropoxy)-1H-pyrazol-1-yl]-10λ^6-thia-1,3,9,13,14-pentaazatetracyclo[16.2.1.111,14.02,7]docosa-2,4,6,11(22),12-pentaene-8,10,10-trione]
- pEC50: 5.52 to 6.00
- Max. Activity: + (+ is <30%)

SMILES: Cc1c2cnn1CCC[C@@H]1CN(c3nc(-n4ccc(OCCC5(C(F)(F)F)CC5)n4)ccc3C(=O)NS2(=O)=O)C(C)(C)C1 (single isomer, unassigned) [Compound 113]
- pEC50: 5.52 to 6.00
- Max. Activity: ++ (++ is 30-60%)

SMILES: CC(C)(C)CCCO[C@H]1CCN(c2ccc3c(n2)N2C[C@@H](CCCNc4cccc(n4)S(=O)(=O)NC3=O)CC2(C)C)C1=O (single isomer, unassigned) [Compound 247]
- pEC50: > 6.00
- Max. Activity: +++ (+++ is >60%)

SMILES: CC1(C)C[C@H]2CCCCc3cccc(n3)S(=O)(=O)NC(=O)c3ccc(-n4ccc(OCCC5(C(F)(F)F)CC5)n4)nc3N1C2 (single isomer, unassigned) [Compound 87, 12,12-dimethyl-8-(3-{2-[1-(trifluoromethyl)cyclopropyl]ethoxy}-1H-pyrazol-1-yl)-2λ^6-thia-3,9,11,23-tetraazatetracyclo[17.3.1.111,14.05,10]tetracosa-1(23),5,7,9,19,21-hexaene-2,2,4-trione]
- pEC50: > 6.00
- Max. Activity: +++ (+++ is >60%)

SMILES: CC(C)(C)CCN1CCN(c2ccc3c(n2)N2C(CCCNc4cccc(n4)S(=O)(=O)NC3=O)CCC2(C)C)C1=O (stereo not drawn) [Compound 232, 8-[3-(3,3-dimethylbutyl)-2-oxoimidazolidin-1-yl]-12,12-dimethyl-2λ^6-thia-3,9,11,19,24-pentaazatetracyclo[18.3.1.05,10.011,15]tetracosa-1(23),5,7,9,20(24),21-hexaene-2,2,4-trione]
- pEC50: < 5.52
- Max. Activity: + (+ is <30%)

SMILES: CC1(C)C[C@H]2CCCn3ccc(n3)S(=O)(=O)NC(=O)c3ccc(-n4ccc(OCCCC5(C(F)(F)F)CC5)n4)nc3N1C2 (single isomer, unassigned) [Compound 166, 20,20-dimethyl-4-(3-{3-[1-(trifluoromethyl)cyclopropyl]propoxy}-1H-pyrazol-1-yl)-10λ^6-thia-1,3,9,14,22-pentaazatetracyclo[16.2.1.111,14.02,7]docosa-2(7),3,5,11(22),12-pentaene-8,10,10-trione]
- pEC50: > 6.00
- Max. Activity: +++ (+++ is >60%)
